From ChEMBL document CHEMBL6074675, “4-Substituted-2-Thiazole Amides as Viral Replication Inhibitors of Alphaviruses” (J Med Chem, 2024)
Active and inactive are the calls of the source. The rule behind the calls is not given here.

Columns and labels:
Chikungunya virus [1] = assay: Antiviral activity against Chikungunya virus S27 infected in golden hamster BHK-21 cells assessed as inhibition of virus-induced cytopathic effect measured after 4 days by microscopic analysis; format: functional, organism-based; conditions: S27, BHK-21, 96 h
[2] = Cytotoxicity against human NHDF cells deficient of IRF3 assessed as reduction in cell viability incubated for 72 hrs by CellTiter Glo luminescence assay; format: toxicity, cell-based
Homo sapiens [3] = species on record: Homo sapiens; assay: Inhibition of Numb-asociated kinase (unknown origin) upto 10 uM relative to control
[4] = Cmax in C57BL/6 mouse at 40 mg/kg, sc; format: ADME, organism-based; conditions: in vivo
[5] = Half life in C57BL/6 mouse at 40 mg/kg, ip; format: ADME, organism-based; conditions: in vivo
[6] = Bioavailability in C57BL/6 mouse at 40 mg/kg, ip; format: ADME, organism-based; conditions: in vivo
[7] = AUC in C57BL/6 mouse at 40 mg/kg, po; format: ADME, organism-based; conditions: in vivo
Chikungunya virus [8] = assay: (§1) Antiviral activity against Chikungunya virus 181/25 infected in human NHDF cells assessed as inhibition of viral RNA synthesis by measuring 49S genomic RNA accumulation at 10 uM treated with cells for 1 hr prior to infection and measured at 12 hrs post-infection by DIG-labeled probe based Northern blot analysis; format: functional, organism-based; conditions: time 13.0 hrs
[9] = Cytotoxicity against human NHDF cells assessed as reduction in cell viability incubated for 24 hrs by CellTiter Glo luminescence assay; format: toxicity, cell-based
[10] = target: Epidermal growth factor receptor (Homo sapiens) (UniProt P00533); assay: Inhibition of EGFR (unknown origin) upto 10 uM relative to control
Epidermal growth factor receptor (Homo sapiens), sequence (P00533 whole entry): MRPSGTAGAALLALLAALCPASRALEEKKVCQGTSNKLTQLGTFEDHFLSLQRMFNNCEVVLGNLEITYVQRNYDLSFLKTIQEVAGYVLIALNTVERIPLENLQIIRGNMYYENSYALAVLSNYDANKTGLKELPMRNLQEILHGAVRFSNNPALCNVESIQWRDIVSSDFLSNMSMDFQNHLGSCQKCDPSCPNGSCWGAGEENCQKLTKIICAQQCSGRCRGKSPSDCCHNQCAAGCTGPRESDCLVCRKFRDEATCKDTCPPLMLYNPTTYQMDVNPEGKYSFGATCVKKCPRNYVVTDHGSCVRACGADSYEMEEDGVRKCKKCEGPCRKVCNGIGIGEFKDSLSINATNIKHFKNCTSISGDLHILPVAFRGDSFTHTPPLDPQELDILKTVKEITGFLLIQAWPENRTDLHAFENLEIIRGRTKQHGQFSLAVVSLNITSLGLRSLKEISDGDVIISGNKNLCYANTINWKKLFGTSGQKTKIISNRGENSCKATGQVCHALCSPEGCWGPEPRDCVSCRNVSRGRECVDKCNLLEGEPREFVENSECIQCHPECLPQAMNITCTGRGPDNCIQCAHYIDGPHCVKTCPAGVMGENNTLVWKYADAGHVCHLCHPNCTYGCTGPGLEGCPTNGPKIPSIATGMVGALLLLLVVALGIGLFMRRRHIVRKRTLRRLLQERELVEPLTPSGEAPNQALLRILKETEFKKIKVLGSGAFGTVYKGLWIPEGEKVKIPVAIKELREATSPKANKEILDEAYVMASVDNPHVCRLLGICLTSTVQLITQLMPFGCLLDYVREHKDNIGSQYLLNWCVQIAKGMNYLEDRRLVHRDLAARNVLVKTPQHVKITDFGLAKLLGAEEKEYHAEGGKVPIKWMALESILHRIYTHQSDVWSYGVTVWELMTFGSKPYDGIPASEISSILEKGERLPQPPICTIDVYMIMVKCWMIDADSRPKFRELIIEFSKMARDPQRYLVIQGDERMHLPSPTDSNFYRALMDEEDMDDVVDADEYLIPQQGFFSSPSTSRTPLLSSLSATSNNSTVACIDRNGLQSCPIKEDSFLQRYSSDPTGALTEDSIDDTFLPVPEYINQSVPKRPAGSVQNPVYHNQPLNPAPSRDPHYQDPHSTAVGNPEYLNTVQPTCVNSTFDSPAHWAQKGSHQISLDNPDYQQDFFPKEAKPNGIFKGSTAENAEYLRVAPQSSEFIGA

Homo sapiens [11] = species on record: Homo sapiens; assay: Inhibition of MAPK (unknown origin) upto 10 uM relative to control
Homo sapiens [12] = species on record: Homo sapiens; assay: Inhibition of CDK (unknown origin) upto 10 uM relative to control
[13] = Octanol/PBS buffer distribution coefficient, logD of the compound at pH 7.5 by LC-MS analysis; format: physicochemical
[14] = Half life in C57BL/6 mouse at 40 mg/kg, po; format: ADME, organism-based; conditions: in vivo
Chikungunya virus [15] = assay: as §1, with “26S subgenomic” for “49S genomic”; format: functional, organism-based; conditions: time 13.0 hrs
Chikungunya virus [16] = assay: Antiviral activity against Chikungunya virus 181/25 infected in human NHDF cells assessed as inhibition of viral translation by measuring decrease in E2 protein expression at 10 uM cells treated with compound prior to infection and measured at 12 hrs post-infection by western blot analysis; format: functional, organism-based
[17] = Cmax in C57BL/6 mouse at 40 mg/kg, ip; format: ADME, organism-based; conditions: in vivo
Zika virus [18] = assay: Antiviral activity against Zika virus PRABC59 infected in human HEK293 cells assessed as reduction of virus load measured at 3 days post-infection by focus-forming assay; format: functional; conditions: PRABC59, HEK293, 72 h, time 3 day
[19] = Half life of the compound in human liver microsomes in presence of NADPH by LC-MS/MS analysis; format: ADME, Microsome
Chikungunya virus [20] = assay: Antiviral activity against Chikungunya virus 181/25 infected in C57BL/6J mouse assessed as reduction in viral dissemination to quadriceps at 80 mg/kg, ip bid for 3 days infected with virus at 2 hrs after first compound treatment and measured at 12 hrs post-final dose by RT-qPCR analysis; format: functional, organism-based; conditions: time 3.0 day
[21] = Bioavailability in C57BL/6 mouse at 40 mg/kg, sc; format: ADME, organism-based; conditions: in vivo
Chikungunya virus [22] = assay: Antiviral activity against Chikungunya virus 181/25 infected in C57BL/6J mouse assessed as reduction in viral load in ipsilateral ankle at 80 mg/kg, ip bid for 3 days infected with virus at 2 hrs after first compound treatment and measured at 12 hrs post-final treatment; format: functional, organism-based; conditions: time 3.0 day
[23] = Half life in C57BL/6 mouse at 40 mg/kg, sc; format: ADME, organism-based; conditions: in vivo
[24] = AUC in C57BL/6 mouse at 40 mg/kg, sc; format: ADME, organism-based; conditions: in vivo
Chikungunya virus [25] = assay: Antiviral activity against Chikungunya virus 181/25 infected in C57BL/6J mouse assessed as reduction in viral dissemination to spleen at 80 mg/kg, ip bid for 3 days infected with virus at 2 hrs after first compound treatment and measured at 12 hrs post-final dose by RT-qPCR analysis; format: functional, organism-based; conditions: time 3.0 day
[26] = AUC in C57BL/6 mouse at 1 mg/kg, iv; format: ADME, organism-based; conditions: in vivo
Chikungunya virus [27] = assay: Antiviral activity against Chikungunya virus 181/25 infected in human NHDF cells assessed as log reduction of virus titer at 10 uM treated with cells at 1 hr prior to infection and measured at 24 hrs post-infection by plaque assay; format: functional; conditions: time 25 hrs
Chikungunya virus [28] = assay: Antiviral activity against Chikungunya virus 181/25 infected in C57BL/6J mouse assessed as reduction in viral load in contralateral ankle at 80 mg/kg, ip bid for 3 days infected with virus at 2 hrs after first compound treatment and measured at 12 hrs post-final treatment; format: functional, organism-based; conditions: time 3.0 day
[29] = Half life in C57BL/6 mouse at 1 mg/kg, iv; format: ADME, organism-based; conditions: in vivo
Chikungunya virus [30] = assay: Antiviral activity against Chikungunya virus 181/25 infected in C57BL/6J mouse assessed as reduction in footpad swelling at 80 mg/kg, ip bid for 3 days infected with virus at 2 hrs after first compound treatment and measured at 12 hrs post-final treatment by digital caliper analysis; format: functional, organism-based; conditions: time 3.0 day
Zika virus [31] = assay: Antiviral activity against Zika virus PRABC59 infected in human HEK293 cells assessed as log reduction of virus titer at 10 uM measured at 3 days post-infection by focus-forming assay; format: functional; conditions: time 3 day
[32] = tested on: Venezuelan equine encephalitis virus; assay: Antiviral activity against VEEV TC-83 infected in human NHDF cells assessed as log reduction of virus titer at 10 uM treated with cells at 1 hr prior to infection and measured at 24 hrs post-infection by plaque assay; format: functional; conditions: time 25 hrs
[33] = Half life of the compound in mouse liver microsomes in presence of NADPH by LC-MS/MS analysis; format: ADME, Microsome
[34] = target: Dihydroorotate dehydrogenase (quinone), mitochondrial (Homo sapiens) (UniProt Q02127); assay: Inhibition of human DHODH
Dihydroorotate dehydrogenase (quinone), mitochondrial (Homo sapiens), sequence (Q02127 whole entry): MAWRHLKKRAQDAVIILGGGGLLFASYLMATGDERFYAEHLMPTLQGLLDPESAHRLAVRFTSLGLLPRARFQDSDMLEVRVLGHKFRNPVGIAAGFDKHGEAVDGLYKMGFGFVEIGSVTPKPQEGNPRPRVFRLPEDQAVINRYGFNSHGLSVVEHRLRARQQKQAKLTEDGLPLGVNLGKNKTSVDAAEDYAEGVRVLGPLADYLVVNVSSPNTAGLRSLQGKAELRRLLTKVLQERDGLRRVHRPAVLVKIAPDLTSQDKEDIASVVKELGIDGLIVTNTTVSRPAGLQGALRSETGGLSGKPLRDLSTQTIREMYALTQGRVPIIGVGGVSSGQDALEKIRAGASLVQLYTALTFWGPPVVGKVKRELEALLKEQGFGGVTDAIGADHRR

Heme oxygenase 1 = target: T1, Heme oxygenase 1 (Homo sapiens, UniProt P09601); assay: Inhibition of HO-1 (unknown origin)
T1 sequence (P09601 whole entry): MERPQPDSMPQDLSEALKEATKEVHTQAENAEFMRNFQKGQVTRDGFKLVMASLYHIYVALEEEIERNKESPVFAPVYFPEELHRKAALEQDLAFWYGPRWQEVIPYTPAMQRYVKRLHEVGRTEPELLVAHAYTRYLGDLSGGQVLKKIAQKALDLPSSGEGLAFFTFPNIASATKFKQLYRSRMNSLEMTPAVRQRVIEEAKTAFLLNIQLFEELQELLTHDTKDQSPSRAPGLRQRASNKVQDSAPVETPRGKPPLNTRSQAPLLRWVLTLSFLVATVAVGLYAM

dengue virus type 2 [35] = assay: Antiviral activity against Dengue virus 2 NGC infected in human HEK293 cells assessed as log reduction of virus titer at 10 uM measured at 3 days post-infection by focus-forming assay; format: functional; conditions: time 3 day
dengue virus type 2 [36] = assay: Antiviral activity against Dengue virus 2 NGC infected in human HEK293 cells assessed as reduction of virus load measured at 3 days post-infection by focus-forming assay; format: functional; conditions: HEK293, 72 h, time 3 day
Chikungunya virus [37] = assay: Antiviral activity against Chikungunya virus 181/25 infected in human NHDF cells assessed as inhibition of infectious virus production at 10 uM treated with infectious cells at 6 hrs post-infection and measured at 48 hrs post-infection following culturing on Vero cells by limiting dilution plaque assay; format: functional, organism-based; conditions: time 42.0 hrs
[38] = Kinetic solubility of the compound in simulated intestinal fluid at pH 7.5 by LC-MS analysis; format: physicochemical; conditions: read-out: Kinetic_solubility
Homo sapiens [39] = species on record: Homo sapiens; assay: Inhibition of PI3K/Akt/mTOR (unknown origin) upto 10 uM relative to control
[40] = tested on: Venezuelan equine encephalitis virus; assay: Antiviral activity against VEEV TC-83 infected in human NHDF cells assessed as reduction of virus titer treated with cells at 1 hr prior to infection and measured at 24 hrs post-infection by plaque assay; format: functional; conditions: TC-83, NHDF, time 25 hrs
[41] = Oral bioavailability in C57BL/6 mouse at 40 mg/kg; format: ADME, organism-based; conditions: in vivo
[42] = AUC in C57BL/6 mouse at 40 mg/kg, ip; format: ADME, organism-based; conditions: in vivo
West Nile virus [43] = assay: Antiviral activity against West Nile virus NY99 infected in human HEK293 cells assessed as log reduction of virus titer at 10 uM measured at 3 days post-infection by focus-forming assay; format: functional; conditions: time 3 day
Chikungunya virus [44] = assay: Antiviral activity against Chikungunya virus 181/25 infected in human NHDF cells assessed as inhibition of viral entry at 10 uM pretreated with virus for 2 hrs prior to infection and measured at 24 hrs post-infection by plaque assay; format: functional, organism-based; conditions: time 26.0 hrs
[45] = Cmax in C57BL/6 mouse at 40 mg/kg, po; format: ADME, organism-based; conditions: in vivo
West Nile virus [46] = assay: Antiviral activity against West Nile virus NY99 infected in human HEK293 cells assessed as reduction of virus load measured at 3 days post-infection by focus-forming assay; format: functional; conditions: NY99, HEK293, 72 h, time 3 day
[47] = Cytotoxicity against human HEK293 cells; format: toxicity, cell-based

Which EC50 (Chikungunya virus [1]) does the source give for O=C(CCN1CCOCC1)c1c(CO)c2ccccc2[nH]c1=O here?
The EC50 was 2200 nM.

Which CC50 at 72 h [2] does the source give for CSc1ncccc1C(=O)Nc1nc(-c2cccc(Nc3ccc(C#N)cc3)c2)cs1 here?
The CC50 at 72 h was > 30000 nM.

And the inhibition (Homo sapiens [3])?
The inhibition was < 30%.

What about the Cmax [4] of the same compound?
Its Cmax is 142 ng/mL.

And the half-life [5]?
The half-life was 3.52 h.

And the bioavailability [6]?
The bioavailability was 91%.

What about the AUC [7] of the same compound?
The AUC was 15300 ng·h/mL.

What about the Activity (Chikungunya virus [8]) of the same compound?
The Activity was “inactive”.

What about the CC50 at 24 h [9] of the same compound?
The CC50 at 24 h was > 30000 nM.

What about the inhibition [10] of the same compound?
Its inhibition is < 30%.

And the inhibition (Homo sapiens [11])?
Its inhibition is < 30%.

And the inhibition (Homo sapiens [12])?
The inhibition was < 30%.

What about the logD [13] of the same compound?
Its logD is > 4.04.

And the half-life [14]?
Its half-life is 2.38 h.

And the Activity (Chikungunya virus [15])?
The Activity was “inactive”.

What about the Activity (Chikungunya virus [16]) of the same compound?
The Activity was “Active”.

And the Cmax [17]?
Its Cmax is 2460 ng/mL.

And the EC90 (Zika virus [18])?
Its EC90 is 170 nM.

What about the half-life [19] of the same compound?
Its half-life is 0.383 h.

And the Activity (Chikungunya virus [20])?
Its Activity is “Active”.

And the bioavailability [21]?
The bioavailability was 5%.

And the Activity (Chikungunya virus [22])?
Its Activity is “inactive”.

And the half-life [23]?
Its half-life is 5.7 h.

And the AUC [24]?
Its AUC is 1520 ng·h/mL.

And the Activity (Chikungunya virus [25])?
The Activity was “Active”.

What about the AUC [26] of the same compound?
Its AUC is 821 ng·h/mL.

What about the “log(activity)” value (Chikungunya virus [27]) of the same compound?
The value was 8.7.

And the Activity (Chikungunya virus [28])?
The Activity was “inactive”.

And the half-life [29]?
Its half-life is 1.78 h.

What about the Activity (Chikungunya virus [30]) of the same compound?
The Activity was “inactive”.

What about the “log(activity)” value (Zika virus [31]) of the same compound?
The value was 3.5.

And the “log(activity)” value [32]?
Its value is 5.9.

And the half-life [33]?
The half-life was 1.23 h.

And the inhibition [34]?
Its inhibition is “Active”.

What about the EC50 (Heme oxygenase 1) of the same compound?
The EC50 was > 50000 nM.

And the “log(activity)” value (dengue virus type 2 [35])?
The value was 2.6.

And the EC90 (dengue virus type 2 [36])?
Its EC90 is 120 nM.

What about the Activity (Chikungunya virus [37]) of the same compound?
The Activity was “Active”.

And the solubility kinetic [38]?
Its solubility kinetic is < 1 µM.

What about the inhibition (Homo sapiens [39]) of the same compound?
The inhibition was < 30%.

What about the EC90 [40] of the same compound?
Its EC90 is 190 nM.

What about the bioavailability [41] of the same compound?
Its bioavailability is 45%.

And the AUC [42]?
The AUC was 30600 ng·h/mL.

What about the “log(activity)” value (West Nile virus [43]) of the same compound?
The value was 2.6.

What about the Activity (Chikungunya virus [44]) of the same compound?
The Activity was “inactive”.

And the Cmax [45]?
Its Cmax is 2100 ng/mL.

What about the EC90 (West Nile virus [46]) of the same compound?
The EC90 was 750 nM.

And the CC50 [47]?
Its CC50 is > 30000 nM.
